From ChEMBL document CHEMBL1201862, “PubChem BioAssay data set” (2004)
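Grown in 96-well plates, cells were treated for 48 hours with each compound at five concentrations. Insufficient inhibition: endpoint recorded as highest concentration tested. The concentration for 50% growth inhibition is given as GI50.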 The source made the active and inactive calls. No stated cut-off is given here; in the data, active = GI50 up to about 1.1 µM and inactive = higher.

Legend:
Test in all cases: NCI tumour cell line growth inhibition, 48 h
[1] = tested on: NCI-H522
[2] = tested on: EKVX
[3] = tested on: SK-MEL-28
[4] = tested on: SF-295
[5] = tested on: NCI-H226
[6] = tested on: HCC 2998
[7] = tested on: IGROV-1
[8] = tested on: RXF 393
[9] = tested on: HOP-62
[10] = tested on: DU-145
[11] = tested on: OVCAR-4
[12] = tested on: MDA-MB-435
[13] = tested on: OVCAR-5
[14] = tested on: SNB-19
[15] = tested on: UACC-62
[16] = tested on: Malme-3M
[17] = tested on: RPMI-8226
[18] = tested on: A498
[19] = tested on: COLO 205
[20] = tested on: MDA-MB-231

Structure (SMILES)	GI50 [1]	GI50 [2]	GI50 [3]	GI50 [4]	GI50 [5]	GI50 [6]	GI50 [7]	GI50 [8]	GI50 [9]	GI50 [10]	GI50 [11]	GI50 [12]	GI50 [13]	GI50 [14]	GI50 [15]	GI50 [16]	GI50 [17]	GI50 [18]	GI50 [19]	GI50 [20]
Cc1ccc(C)c2c1C/C(=C\c1ccccc1C(=O)O)C2=O	> 100 µM (inactive)	45.7 µM (inactive)	> 100 µM (inactive)	> 100 µM (inactive)	20.8 µM (inactive)	> 100 µM (inactive)	> 100 µM (inactive)	> 100 µM (inactive)	> 100 µM (inactive)	97.3 µM (inactive)	62.7 µM (inactive)	67.5 µM (inactive)	> 100 µM (inactive)	81.3 µM (inactive)	> 100 µM (inactive)	> 100 µM (inactive)	27.7 µM (inactive)	> 100 µM (inactive)	> 100 µM (inactive)	–
CSc1cc(Br)ccc1-n1c(C(=O)c2ccccc2)c(SC)n(-c2ccccc2)c1=O	54.6 µM (inactive)	> 100 µM (inactive)	> 100 µM (inactive)	84.5 µM (inactive)	> 100 µM (inactive)	86.9 µM (inactive)	> 100 µM (inactive)	–	> 100 µM (inactive)	–	> 100 µM (inactive)	7.59 µM (inactive)	> 100 µM (inactive)	> 100 µM (inactive)	> 100 µM (inactive)	–	–	–	47.2 µM (inactive)	39.8 µM (inactive)
Cn1c(-c2ccccc2)cc(-c2cccs2)c1-c1cccs1	> 64.6 µM (inactive)	34.2 µM (inactive)	> 100 µM (inactive)	> 100 µM (inactive)	> 100 µM (inactive)	49.5 µM (inactive)	> 100 µM (inactive)	> 81.3 µM (inactive)	> 81.3 µM (inactive)	–	> 96.4 µM (inactive)	–	> 100 µM (inactive)	> 100 µM (inactive)	> 100 µM (inactive)	> 100 µM (inactive)	73.3 µM (inactive)	> 100 µM (inactive)	82.6 µM (inactive)	–
O=C1c2cccc(NCCNCCO)c2C(=O)c2cccc(NCCNCCO)c21	0.312 µM (active)	1.78 µM (inactive)	1.71 µM (inactive)	1.79 µM (inactive)	0.998 µM (active)	0.802 µM (active)	1.56 µM (inactive)	1.59 µM (inactive)	1.29 µM (inactive)	0.612 µM (active)	0.889 µM (active)	1.25 µM (inactive)	1.53 µM (inactive)	0.897 µM (active)	1.81 µM (inactive)	1.82 µM (inactive)	1.2 µM (inactive)	2.48 µM (inactive)	0.661 µM (active)	–
c1ccc(P(CCP(c2ccccn2)c2ccccn2)c2ccccc2)cc1	0.0314 µM (active)	0.689 µM (active)	64 µM (inactive)	0.497 µM (active)	45.3 µM (inactive)	3.37 µM (inactive)	< 0.01 µM (active)	19.8 µM (inactive)	0.0268 µM (active)	1.19 µM (inactive)	50.7 µM (inactive)	12.1 µM (inactive)	> 75.9 µM (inactive)	0.498 µM (active)	63.7 µM (inactive)	25.2 µM (inactive)	0.0409 µM (active)	12.8 µM (inactive)	0.341 µM (active)	–
CCOc1ccccc1NC(=O)C1=C(C)NC(C)=C(C(=O)Nc2ccccc2OCC)C1c1ccc([N+](=O)[O-])cc1	> 100 µM (inactive)	54 µM (inactive)	> 100 µM (inactive)	21.3 µM (inactive)	21.4 µM (inactive)	> 100 µM (inactive)	45.2 µM (inactive)	> 100 µM (inactive)	> 100 µM (inactive)	–	68.9 µM (inactive)	–	> 100 µM (inactive)	> 100 µM (inactive)	26.1 µM (inactive)	> 100 µM (inactive)	10 µM (inactive)	78.9 µM (inactive)	67.9 µM (inactive)	–
CCOC(=O)C(C(=O)OCC)=C1NC2(c3ccccc3Nc3ccccc32)C(C#N)S1 (configuration not stated)	13.9 µM (inactive)	13.7 µM (inactive)	17 µM (inactive)	11.1 µM (inactive)	12 µM (inactive)	4.42 µM (inactive)	11.1 µM (inactive)	12.9 µM (inactive)	12.2 µM (inactive)	12 µM (inactive)	4.3 µM (inactive)	7.73 µM (inactive)	16.7 µM (inactive)	12.6 µM (inactive)	10.3 µM (inactive)	15.3 µM (inactive)	3.01 µM (inactive)	13.8 µM (inactive)	6.75 µM (inactive)	–
CCC(C(=O)O)c1ccc(OCc2ccccc2)cc1 (configuration not stated)	> 100 µM (inactive)	> 100 µM (inactive)	> 100 µM (inactive)	> 100 µM (inactive)	> 100 µM (inactive)	> 100 µM (inactive)	> 100 µM (inactive)	> 100 µM (inactive)	> 100 µM (inactive)	–	> 100 µM (inactive)	–	> 100 µM (inactive)	> 100 µM (inactive)	> 100 µM (inactive)	> 100 µM (inactive)	> 100 µM (inactive)	> 100 µM (inactive)	> 100 µM (inactive)	–
CCCCNC(=O)C1C(=O)N(CCCC)C(=O)/C1=N\N (configuration not stated)	> 100 µM (inactive)	> 100 µM (inactive)	> 100 µM (inactive)	> 100 µM (inactive)	> 100 µM (inactive)	> 100 µM (inactive)	> 100 µM (inactive)	> 100 µM (inactive)	> 100 µM (inactive)	–	> 100 µM (inactive)	–	> 100 µM (inactive)	> 100 µM (inactive)	> 100 µM (inactive)	> 100 µM (inactive)	> 100 µM (inactive)	> 100 µM (inactive)	> 100 µM (inactive)	–
N#CCC1COc2ccccc2O1 (configuration not stated)	> 10 µM (inactive)	–	> 10 µM (inactive)	> 10 µM (inactive)	–	> 10 µM (inactive)	> 10 µM (inactive)	–	> 10 µM (inactive)	> 10 µM (inactive)	> 10 µM (inactive)	> 10 µM (inactive)	> 10 µM (inactive)	> 10 µM (inactive)	> 10 µM (inactive)	> 10 µM (inactive)	> 10 µM (inactive)	–	> 10 µM (inactive)	> 10 µM (inactive)
O[C@H]1[C@H](O)[C@@H](O)CN2CC[C@H](O)[C@H]12 [CASTANOSPERMINE]	> 100 µM (inactive)	> 100 µM (inactive)	> 100 µM (inactive)	> 100 µM (inactive)	> 100 µM (inactive)	> 95.5 µM (inactive)	> 100 µM (inactive)	> 100 µM (inactive)	> 100 µM (inactive)	–	> 86.7 µM (inactive)	–	> 100 µM (inactive)	> 100 µM (inactive)	> 100 µM (inactive)	> 90.6 µM (inactive)	> 100 µM (inactive)	> 100 µM (inactive)	> 100 µM (inactive)	–
